Reference: ChEMBL document CHEMBL1148842, “Discovery of novel, non-acidic 1,5-biaryl pyrrole EP1 receptor antagonists” (Bioorg Med Chem Lett, 2007)

target: T1, Prostaglandin E2 receptor EP1 subtype (Homo sapiens, UniProt P34995); experiment: Displacement of [3H]PGE2 from human recombinant EP1 receptor expressed in CHO cells; assay type: cell-based
T1 sequence (P34995 whole entry): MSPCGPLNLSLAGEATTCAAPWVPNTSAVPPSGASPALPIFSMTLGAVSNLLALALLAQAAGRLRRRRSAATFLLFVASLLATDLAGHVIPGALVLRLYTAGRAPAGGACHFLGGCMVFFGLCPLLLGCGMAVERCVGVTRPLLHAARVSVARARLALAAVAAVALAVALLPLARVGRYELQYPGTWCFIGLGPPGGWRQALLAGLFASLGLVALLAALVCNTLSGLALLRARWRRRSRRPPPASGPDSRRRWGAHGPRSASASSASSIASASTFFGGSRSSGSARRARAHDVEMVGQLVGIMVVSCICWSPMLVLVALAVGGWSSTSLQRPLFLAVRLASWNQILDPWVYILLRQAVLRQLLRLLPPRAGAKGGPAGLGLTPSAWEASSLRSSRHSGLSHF

**Q.** For `CNC(=O)c1cccc(-n2c(C)ccc2-c2cc(Br)ccc2OCc2ccc(F)cc2F)c1`, which IC50 is on record?
**A.** Its IC50 is 20 nM.

**Q.** With `Cc1ccc(-c2cc(Br)ccc2OCc2ccc(F)cc2F)n1-c1cccc(C(=O)N(C)C)c1` as the compound, how does the IC50 read?
**A.** Its IC50 is 10 nM.

**Q.** How did the IC50 turn out when `Cc1ccc(-c2cc(Cl)ccc2OCc2ccccc2)n1-c1ccc(C(=O)NCc2ccccn2)cc1` was run?
**A.** Its IC50 is 2.51 nM.

**Q.** With `Cc1ccc(-c2cc(Cl)ccc2OCc2ccccc2)n1-c1cccc(C(=O)NS(=O)(=O)c2ccccc2)c1` as the compound, how does the IC50 read?
**A.** Its IC50 is 2.51 nM.

**Q.** With `Cc1ccc(-c2ccccc2OCc2ccccc2)n1-c1cccc(C(=O)NS(=O)(=O)c2ccccc2)c1` as the compound, how does the IC50 read?
**A.** The IC50 was 2.51 nM.

**Q.** For `Cc1ccc(-c2cc(Cl)ccc2OCc2ccccc2)n1-c1ccc(C(=O)NCc2ccncc2)cc1`, which IC50 is on record?
**A.** The IC50 was 63.1 nM.

**Q.** How did the IC50 turn out when `Cc1ccc(-c2cc(Cl)ccc2OCc2ccccc2)n1-c1ccc(S(=O)(=O)NC(=O)c2ccccc2)cc1` was run?
**A.** The IC50 was 7.94 nM.

**Q.** Which IC50 does the source give for `Cc1ccc(-c2cc(Br)ccc2OCc2ccc(F)cc2F)n1-c1cccc(C(O)(C(F)(F)F)C(F)(F)F)c1` here?
**A.** Its IC50 is 25.1 nM.

**Q.** Which IC50 does the source give for `Cc1ccc(-c2ccccc2OCc2ccccc2)n1-c1cccc(S(C)(=O)=O)c1` here?
**A.** Its IC50 is greater than 1000 nM.

**Q.** Which IC50 does the source give for `Cc1ccc(-c2cc(Cl)ccc2OCc2ccccc2)n1-c1cccc(S(C)(=O)=O)c1` here?
**A.** The IC50 was 126 nM.

**Q.** Which IC50 does the source give for `Cc1ccc(-c2cc(Br)ccc2OCc2ccccc2)n1-c1cccc(S(C)(=O)=O)c1` here?
**A.** Its IC50 is 200 nM.

**Q.** How did the IC50 turn out when `Cc1ccc(-c2cc(Cl)ccc2OCc2ccccc2)n1-c1ccc(S(C)(=O)=O)cc1` was run?
**A.** The IC50 was 20 nM.

**Q.** How did the IC50 turn out when `Cc1ccc(-c2cc(Br)ccc2OCc2ccccc2)n1-c1ccc(S(C)(=O)=O)cc1` was run?
**A.** The IC50 was 31.6 nM.

**Q.** For `Cc1ccc(-c2cc(Br)ccc2OCc2ccc(F)cc2F)n1-c1ccc(C(N)=O)cc1`, which IC50 is on record?
**A.** Its IC50 is 7.94 nM.

**Q.** `CNC(=O)c1ccc(-n2c(C)ccc2-c2cc(Br)ccc2OCc2ccc(F)cc2F)cc1` was tested. Which IC50 did it give?
**A.** Its IC50 is 3.98 nM.

**Q.** With `Cc1ccc(-c2cc(Br)ccc2OCc2ccc(F)cc2F)n1-c1ccc(C(=O)N(C)C)cc1` as the compound, how does the IC50 read?
**A.** Its IC50 is 15.8 nM.

**Q.** How did the IC50 turn out when `Cc1ccc(-c2cc(Cl)ccc2OCc2ccccc2)n1-c1cccc(C(=O)NCc2ccccc2)c1` was run?
**A.** The IC50 was 25.1 nM.

**Q.** How did the IC50 turn out when `Cc1ccc(-c2cc(Cl)ccc2OCc2ccccc2)n1-c1cccc(C(=O)NCc2cccnc2)c1` was run?
**A.** Its IC50 is 63.1 nM.

**Q.** Which IC50 does the source give for `Cc1ccc(-c2cc(Cl)ccc2OCc2ccccc2)n1-c1cccc(C(=O)NCc2ccncc2)c1` here?
**A.** Its IC50 is 63.1 nM.

**Q.** `Cc1ccc(-c2cc(Br)ccc2OCc2ccc(F)cc2F)n1-c1cccc(-c2nc3ccccc3[nH]2)c1` was tested. Which IC50 did it give?
**A.** The IC50 was 63.1 nM.

**Q.** For `Cc1nnc(-c2cccc(-n3c(C)ccc3-c3cc(Br)ccc3OCc3ccc(F)cc3F)c2)o1`, which IC50 is on record?
**A.** The IC50 was 39.8 nM.

**Q.** `Cc1nc(-c2cccc(-n3c(C)ccc3-c3cc(Br)ccc3OCc3ccc(F)cc3F)c2)no1` was tested. Which IC50 did it give?
**A.** The IC50 was 200 nM.

**Q.** How did the IC50 turn out when `CC(=O)Nc1cccc(-n2c(C)ccc2-c2cc(Cl)ccc2OCc2ccccc2)c1` was run?
**A.** The IC50 was 63.1 nM.

**Q.** Which IC50 does the source give for `Cc1ccc(-c2cc(Br)ccc2OCc2ccc(F)cc2F)n1-c1ccc(-c2cnc[nH]2)cc1` here?
**A.** Its IC50 is 39.8 nM.

**Q.** Which IC50 does the source give for `Cc1ccc(-c2cc(Cl)ccc2OCc2ccccc2)n1-c1ccc(C(=O)N[C@H](C)c2ccccc2)cc1` here?
**A.** The IC50 was 1.58 nM.

**Q.** Which IC50 does the source give for `Cc1ccc(-c2cc(Br)ccc2OCc2ccc(F)cc2F)n1-c1ccc2c(c1)C(=O)NC2=O` here?
**A.** Its IC50 is 158 nM.

**Q.** `Cc1ccc(-c2ccccc2OCc2ccc(F)cc2F)n1-c1ccc2nn[nH]c2c1` was tested. Which IC50 did it give?
**A.** The IC50 was 631 nM.

**Q.** With `Cc1ccc(-c2cc(Cl)ccc2OCc2ccccc2)n1-c1ccc2nn[nH]c2c1` as the compound, how does the IC50 read?
**A.** Its IC50 is 25.1 nM.

**Q.** `CCN(CC)C(=O)c1ccc(-n2c(C)ccc2-c2cc(Br)ccc2OCc2ccc(F)cc2F)cc1` was tested. Which IC50 did it give?
**A.** Its IC50 is 50.1 nM.

**Q.** `Cc1ccc(-c2cc(Cl)ccc2OCc2ccccc2)n1-c1ccc(C(=O)NCc2ccccc2)cc1` was tested. Which IC50 did it give?
**A.** The IC50 was 25.1 nM.

**Q.** For `Cc1ccc(-c2cc(Cl)ccc2OCc2ccccc2)n1-c1ccc2cn[nH]c2c1`, which IC50 is on record?
**A.** Its IC50 is 39.8 nM.

**Q.** `Cc1ccc(-c2cc(Br)ccc2OCc2ccc(F)cc2F)n1-c1cccc(-c2cccnc2)c1` was tested. Which IC50 did it give?
**A.** The IC50 was 126 nM.

**Q.** With `Cc1ccc(-c2cc(Br)ccc2OCc2ccc(F)cc2F)n1-c1cccc(-c2ccccn2)c1` as the compound, how does the IC50 read?
**A.** The IC50 was 251 nM.

**Q.** With `Cc1ccc(-c2cc(Cl)ccc2OCc2ccccc2)n1-c1ccc(C(=O)N[C@@H](C)c2ccccc2)cc1` as the compound, how does the IC50 read?
**A.** The IC50 was 5.01 nM.

**Q.** With `Cc1ccc(-c2cc(Cl)ccc2OCc2ccccc2)n1-c1cccc(C(=O)N[C@@H](C)c2ccccc2)c1` as the compound, how does the IC50 read?
**A.** Its IC50 is 316 nM.

**Q.** With `Cc1ccc(-c2cc(Br)ccc2OCc2ccc(F)cc2F)n1-c1cccc(C(=O)NS(C)(=O)=O)c1` as the compound, how does the IC50 read?
**A.** The IC50 was 3.98 nM.

**Q.** With `Cc1noc(C)c1S(=O)(=O)NC(=O)c1cccc(-n2c(C)ccc2-c2ccccc2OCc2ccccc2)c1` as the compound, how does the IC50 read?
**A.** Its IC50 is 5.01 nM.

**Q.** For `Cc1ccc(-c2cc(Cl)ccc2OCc2ccccc2)n1-c1ccc(-n2cncn2)cc1`, which IC50 is on record?
**A.** Its IC50 is 501 nM.

**Q.** For `Cc1ccc(-c2cc(Br)ccc2OCc2ccc(F)cc2F)n1-c1cccc(C(=O)Nc2ccccc2)c1`, which IC50 is on record?
**A.** Its IC50 is 501 nM.

**Q.** For `Cc1ccc(-c2cc(Cl)ccc2OCc2ccccc2)n1-c1cccc(C(=O)N[C@H](C)c2ccccc2)c1`, which IC50 is on record?
**A.** The IC50 was 39.8 nM.

**Q.** Which IC50 does the source give for `Cc1ccc(-c2cc(Cl)ccc2OCc2ccccc2)n1-c1ccc2[nH]ncc2c1` here?
**A.** The IC50 was 39.8 nM.

**Q.** How did the IC50 turn out when `Cc1ccc(-c2cc(Cl)ccc2OCc2ccccc2)n1-c1ccc(S(N)(=O)=O)cc1` was run?
**A.** The IC50 was 20 nM.

**Q.** `Cc1ccc(-c2ccccc2OCc2ccc(F)cc2F)n1-c1cccc(C(N)=O)c1` was tested. Which IC50 did it give?
**A.** The IC50 was 501 nM.

**Q.** For `Cc1ccc(-c2cc(Cl)ccc2OCc2ccccc2)n1-c1cccc(C(N)=O)c1`, which IC50 is on record?
**A.** Its IC50 is 63.1 nM.

**Q.** For `Cc1ccc(-c2cc(Br)ccc2OCc2ccc(F)cc2F)n1-c1cccc(-c2ncccn2)c1`, which IC50 is on record?
**A.** The IC50 was 126 nM.

**Q.** With `Cc1ccc(-c2cc(Cl)ccc2OCc2ccccc2)n1-c1cccc(S(=O)(=O)NC(=O)c2ccccc2)c1` as the compound, how does the IC50 read?
**A.** The IC50 was 79.4 nM.

**Q.** How did the IC50 turn out when `Cc1ccc(-c2cc(Cl)ccc2OCc2ccccc2)n1-c1cccc(C(=O)NCc2ccccn2)c1` was run?
**A.** The IC50 was 50.1 nM.

**Q.** For `Cc1ccc(-c2cc(Cl)ccc2OCc2ccccc2)n1-c1ccc(C(=O)NCc2cccnc2)cc1`, which IC50 is on record?
**A.** Its IC50 is 12.6 nM.

**Q.** How did the IC50 turn out when `Cc1cc(=O)[nH]c2cc(-n3c(C)ccc3-c3cc(Cl)ccc3OCc3ccccc3)ccc12` was run?
**A.** The IC50 was 63.1 nM.

**Q.** How did the IC50 turn out when `Cc1ccc(-c2cc(Br)ccc2OCc2ccc(F)cc2F)n1-c1ccc(C(=O)NC(C)(C)C)cc1` was run?
**A.** Its IC50 is 15.8 nM.

**Q.** `Cc1ccc(-c2ccccc2OCc2ccccc2)n1-c1ccc(S(C)(=O)=O)cc1` was tested. Which IC50 did it give?
**A.** The IC50 was 501 nM.
